Tests used:
Type in all cases: cell-based
[1] = test system: L. sativa cultivar Evola (LE) leaf explants; test: Direct shoot regeneration from leaf explants, cultivar Evola (LE)
Experimental: (§1) Seeds of L. sativa cultivars (New England Seed Co., Hartford, Conn.) were disinfected in a solution of 30% commercial bleach with 0.01%, Tween-20 for 5 min, rinsed five times in sterile water and placed on half strength Murashige and Skoog (MS; Murashige and Skoog, 1962) medium solidified with 0.6% Phytablend® (Caisson, N. Logan, Utah). After 21 days, fully expanded first leaves were dissected into 0.8 cm^2 and placed adaxial side on the medium. The culture medium was composed of MS basal salts, 3% sucrose and 0.6% Phytablend. Plant growth regulators were added to the medium as shown in table 1 and pH was adjusted to 5.8 prior autoclaving. Cultures were maintained at 26±2° C. at 40 μE m^2 s^−1 photon density; 16 hrs light/8 hrs dark.

[2] = test system: L. sativa cultivar Great Lake (LG) leaf explants; test: Direct shoot regeneration from leaf explants, cultivar Great Lake (LG)
Experimental: as §1

[3] = test system: L. sativa cultivar Lentissima (LL) leaf explants; test: Direct shoot regeneration from leaf explants, cultivar Lentissima (LL)
Experimental: as §1

[4] = test system: L. sativa cultivar Romaine (LR) leaf explants; test: Direct shoot regeneration from leaf explants, cultivar Romaine (LR)
Experimental: as §1

[5] = test system: L. sativa cultivar Simpson Elite (LS) leaf explants; test: Direct shoot regeneration from leaf explants, cultivar Simpson Elite (LS)
Experimental: as §1

Measured: EFF: Number of regenerated shoots/total explants

c1ccc(CNc2ncnc3[nH]cnc23)cc1 [BAP]
0: [1]; BAP 0.1 μg ml^−1 alone | [2]; BAP 0.1 μg ml^−1 alone | [3]; BAP 0.1 μg ml^−1 alone | [4]; BAP 0.1 μg ml^−1 alone | [5]; BAP 0.1 μg ml^−1 alone

O=C(O)Cc1cccc2ccccc12 [NAA]
0: [1]; NAA 0.1 μg ml^−1 alone | [2]; NAA 0.1 μg ml^−1 alone | [3]; NAA 0.1 μg ml^−1 alone | [4]; NAA 0.1 μg ml^−1 alone | [5]; NAA 0.1 μg ml^−1 alone

From patent publication US20100325756A1, “PLASTID TRANSFORMATION UTILIZING ENDOGENOUS REGULATORY ELEMENTS” (priority 2009, published 2010)
